Data published in US9676732B2, “Ethynyl derivatives” (Hoffmann-La Roche Inc., priority 2013, dated 2017).

Molecular target: human mGlu4 receptor (Homo sapiens (Human), UniProt Q14833)
Assay: Ca2+ mobilization in vitro assay on recombinant human mGlu4 expressed in HEK293 cells (mGlu4 PAM)
Assay type: cell-based
Settings: for EC50: HEK293 cells stably expressing human mGlu4, L-AP4 added at EC20, read-out: EC50 (nM) mGlu4PAM; for Eff. (%): maximal response in % of the maximal stimulatory effect obtained with saturating concentrations of L-AP4
Method: Determination of EC50 Values Using a Ca2+ Mobilization In Vitro Assay on Recombinant Human mGlu4 Expressed in HEK293 Cells:
A monoclonal HEK-293 cell line stably transfected with a cDNA encoding for the human mGlu4 receptor was generated; for the work with mGlu4 Positive Allosteric Modulators (PAMs), a cell line with low receptor expression levels and low constitutive receptor activity was selected to allow the differentiation of agonistic versus PAM activity. Cells were cultured according to standard protocols (Freshney, 2000) in Dulbecco's Modified Eagle Medium with high glucose supplemented with 1 mM glutamine, 10% (vol/vol) heat-inactivated bovine calf serum, Penicillin/Streptomycin, 50 μg/ml hygromycin and 15 μg/ml blasticidin (all cell culture reagents and antibiotics from Invitrogen, Basel, Switzerland).
About 24 hrs before an experiment, 5×10^4 cells/well were seeded in poly-D-lysine coated, black/clear-bottomed 96-well plates. The cells were loaded with 2.5 μM Fluo-4AM in loading buffer (1×HBSS, 20 mM HEPES) for 1 hr at 37° C. and washed five times with loading buffer. The cells were transferred into a Functional Drug Screening System 7000 (Hamamatsu, Paris, France), and 11 half logarithmic serial dilutions of test compound at 37° C. were added and the cells were incubated for 10-30 min. with on-line recording of fluorescence. Following this pre-incubation step, the agonist (2S)-2-amino-4-phosphonobutanoic acid (L-AP4) was added to the cells at a concentration corresponding to EC20 with on-line recording of fluorescence; in order to account for day-to-day variations in the responsiveness of cells, the EC20 of L-AP4 was determined immediately ahead of each experiment by recording of a full dose-response curve of L-AP4.
Responses were measured as peak increase in fluorescence minus basal (i.e. fluorescence without addition of L-AP4), normalized to the maximal stimulatory effect obtained with saturating concentrations of L-AP4. Graphs were plotted with the % maximal stimulatory using XLfit, a curve fitting program that iteratively plots the data using Levenburg Marquardt algorithm. The single site competition analysis equation used was y=A+((B−A)/(1+((x/C)D))), where y is the % maximal stimulatory effect, A is the minimum y, B is the maximum y, C is the EC50, x is the log 10 of the concentration of the competing compound and D is the slope of the curve (the Hill Coefficient). From these curves the EC50 (drug concentration at which 50% of the maximal receptor activation was achieved), the Hill coefficient as well as the maximal response in % of the maximal stimulatory effect obtained with saturating concentrations of L-AP4 were calculated (see FIG. 1).
A depression of the signal observed after addition of the EC20 concentration of L-AP4 was indicative of an inhibitory activity of the test compound. • FIG. 1: Illustration of the experimental outline for mGlu4 PAM Ca2+ mobilization screening assay and the determination of EC50 and % Emax values.

Chain of human mGlu4 receptor (Q14833 33-912): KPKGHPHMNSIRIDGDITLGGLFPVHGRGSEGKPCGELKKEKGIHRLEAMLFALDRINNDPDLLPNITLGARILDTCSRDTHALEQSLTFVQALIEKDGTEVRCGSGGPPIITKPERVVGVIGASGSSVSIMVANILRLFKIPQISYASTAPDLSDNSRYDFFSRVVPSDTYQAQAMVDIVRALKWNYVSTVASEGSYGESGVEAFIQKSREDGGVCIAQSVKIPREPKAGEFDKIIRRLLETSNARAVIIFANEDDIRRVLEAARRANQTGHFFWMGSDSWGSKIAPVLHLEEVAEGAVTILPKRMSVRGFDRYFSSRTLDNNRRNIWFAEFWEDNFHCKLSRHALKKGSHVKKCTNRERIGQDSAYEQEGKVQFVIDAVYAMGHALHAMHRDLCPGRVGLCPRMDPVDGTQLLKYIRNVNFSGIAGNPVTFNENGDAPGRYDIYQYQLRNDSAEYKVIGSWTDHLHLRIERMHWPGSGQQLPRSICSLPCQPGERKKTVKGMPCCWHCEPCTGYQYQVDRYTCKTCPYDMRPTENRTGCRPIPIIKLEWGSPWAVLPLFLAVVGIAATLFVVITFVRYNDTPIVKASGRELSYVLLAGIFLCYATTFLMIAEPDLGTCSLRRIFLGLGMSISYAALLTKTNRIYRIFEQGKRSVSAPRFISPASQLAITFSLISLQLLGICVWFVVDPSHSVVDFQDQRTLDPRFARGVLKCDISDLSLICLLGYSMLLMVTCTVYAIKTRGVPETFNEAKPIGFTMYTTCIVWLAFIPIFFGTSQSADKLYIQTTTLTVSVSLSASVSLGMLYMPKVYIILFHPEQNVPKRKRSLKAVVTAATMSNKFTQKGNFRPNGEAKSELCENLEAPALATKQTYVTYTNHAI

EC50 | Eff. (%) | Compound
150 nM | 102% | Cn1c(=O)n(-c2ccc(C#Cc3ccccc3)cc2Cl)c(=O)c2ccccc21 [Example 1, 3-[2-Chloro-4-(2-phenylethynyl)phenyl]-1-methyl-quinazoline-2,4-dione]
94 nM | 99% | Cc1cccc2c(=O)n(-c3ccc(C#Cc4ccccc4)cc3Cl)c(=O)n(C)c12 [Example 2, 3-[2-Chloro-4-(2-phenylethynyl)phenyl]-1,8-dimethyl-quinazoline-2,4-dione]
137 nM | 93% | Cn1c(=O)n(-c2ccc(C#Cc3ccccc3)cc2Cl)c(=O)c2cccc(Cl)c21 [Example 3, 8-Chloro-3-[2-chloro-4-(2-phenylethynyl)phenyl]-1-methyl-quinazoline-2,4-dione]
220 nM | 120% | Cn1c(=O)n(-c2ccc(C#Cc3ccccc3)cc2Cl)c(=O)c2ccc(Cl)cc21 [Example 4, 7-Chloro-3-[2-chloro-4-(2-phenylethynyl)phenyl]-1-methyl-quinazoline-2,4-dione]
93 nM | 108% | Cc1ccc2c(=O)n(-c3ccc(C#Cc4ccccc4)cc3Cl)c(=O)n(C)c2c1 [Example 5, 3-[2-Chloro-4-(2-phenylethynyl)phenyl]-1,7-dimethyl-quinazoline-2,4-dione]
179 nM | 104% | O=c1[nH]c2ncccc2c(=O)n1-c1ccc(C#Cc2ccccc2)cc1Cl [Example 6, 3-[2-Chloro-4-(2-phenylethynyl)phenyl]-1H-pyrido[2,3-d]pyrimidine-2,4-dione]
222 nM | 101% | Cn1c(=O)n(-c2ccc(C#Cc3ccccc3)cc2Cl)c(=O)c2cccnc21 [Example 7, 3-[2-Chloro-4-(2-phenylethynyl)phenyl]-1-methyl-pyrido[2,3-d]pyrimidine-2,4-dione]
65 nM | 100% | CCc1cccc2c(=O)n(-c3ccc(C#Cc4ccccc4)cc3Cl)c(=O)n(C)c12 [Example 8, 3-[2-Chloro-4-(2-phenylethynyl)phenyl]-8-ethyl-1-methyl-quinazoline-2,4-dione]
308 nM | 167% | Cn1c(=O)n(-c2ccc(C#Cc3ccccc3)cc2Cl)c(=O)c2ncccc21 [Example 9, 3-[2-Chloro-4-(2-phenylethynyl)phenyl]-1-methyl-pyrido[3,2-d]pyrimidine-2,4-dione]
399 nM | 180% | Cn1c(=O)n(-c2ccc(C#Cc3ccccc3)cc2Cl)c(=O)c2cnccc21 [Example 10, 3-[2-Chloro-4-(2-phenylethynyl)phenyl]-1-methyl-pyrido[4,3-d]pyrimidine-2,4-dione]
175 nM | 122% | Cn1cnc2c1c(=O)n(-c1ccc(C#Cc3ccccc3)cc1Cl)c(=O)n2C [Example 11, 1-[2-Chloro-4-(2-phenylethynyl)phenyl]-3,7-dimethyl-purine-2,6-dione]
80 nM | 106% | O=c1c2cccc3c2n(c(=O)n1-c1ccc(C#Cc2ccccc2)cc1Cl)CC3 [Example 12, 2-(2-Chloro-4-(phenylethynyl)phenyl)-5,6-dihydro-1H-pyrrolo[3,2,1-ij]quinazoline-1,3(2H)-dione]
57 nM | 115% | CC(C)n1c(=O)n(-c2ccc(C#Cc3ccccc3)cc2Cl)c(=O)c2ccccc21 [Example 13, 3-[2-Chloro-4-(2-phenylethynyl)phenyl]-1-isopropyl-quinazoline-2,4-dione]
172 nM | 97% | CCn1c(=O)n(-c2ccc(C#Cc3ccccc3)cc2Cl)c(=O)c2ccccc21 [Example 14, 3-[2-Chloro-4-(2-phenylethynyl)phenyl]-1-ethyl-quinazoline-2,4-dione]
110 nM | 111% | Cn1c(=O)n(-c2ccc(C#Cc3ccccc3)cc2Cl)c(=O)c2nccnc21 [Example 15, 3-[2-Chloro-4-(2-phenylethynyl)phenyl]-1-methyl-pteridine-2,4-dione]
152 nM | 98% | O=c1[nH]c2ncncc2c(=O)n1-c1ccc(C#Cc2ccccc2)cc1Cl [Example 16, 3-[2-Chloro-4-(2-phenylethynyl)phenyl]-1H-pyrimido[4,5-d]pyrimidine-2,4-dione]
143 nM | 101% | Cn1c(=O)n(-c2ccc(C#Cc3ccccc3)cc2Cl)c(=O)c2cncnc21 [Example 17, 3-[2-Chloro-4-(2-phenylethynyl)phenyl]-1-methyl-pyrimido[4,5-d]pyrimidine-2,4-dione]
148 nM | 86% | Cn1c(=O)n(-c2ccc(C#Cc3ccccc3)cc2Cl)c(=O)c2cc(F)ccc21 [Example 18, 3-[2-Chloro-4-(2-phenylethynyl)phenyl]-6-fluoro-1-methyl-quinazoline-2,4-dione]
134 nM | 73% | Cn1c(=O)n(-c2ccc(C#Cc3ccccc3)cc2Cl)c(=O)c2ccc(F)c(F)c21 [Example 19, 3-[2-Chloro-4-(2-phenylethynyl)phenyl]-7,8-difluoro-1-methyl-quinazoline-2,4-dione]
50 nM | 74% | Cc1csc2c(=O)n(-c3ccc(C#Cc4ccccc4)cc3Cl)c(=O)n(C)c12 [Example 20, 3-[2-Chloro-4-(2-phenylethynyl)phenyl]-1,7-dimethyl-thieno[3,2-d]pyrimidine-2,4-dione]
52 nM | 89% | CC(C)n1c(=O)n(-c2ccc(C#Cc3ccccc3)cc2Cl)c(=O)c2nccnc21 [Example 21, 3-[2-Chloro-4-(2-phenylethynyl)phenyl]-1-isopropyl-pteridine-2,4-dione]
167 nM | 88% | CC(C)n1c(=O)n(-c2ccc(C#Cc3cccnc3)cc2Cl)c(=O)c2nccnc21 [Example 22, 3-[2-Chloro-4-[2-(3-pyridyl)ethynyl]phenyl]-1-isopropyl-pteridine-2,4-dione]
203 nM | 168% | Cn1c(=O)n(-c2c(F)cc(C#Cc3ccccc3)cc2F)c(=O)c2ccccc21 [Example 23, 3-[2,6-Difluoro-4-(2-phenylethynyl)phenyl]-1-methyl-quinazoline-2,4-dione]
26 nM | 101% | Cc1cccc2c(=O)n(-c3c(F)cc(C#Cc4ccccc4)cc3F)c(=O)n(C)c12 [Example 24, 3-[2,6-Difluoro-4-(2-phenylethynyl)phenyl]-1,8-dimethyl-quinazoline-2,4-dione]
89 nM | 109% | Cn1c(=O)n(-c2c(F)cc(C#Cc3ccccc3)cc2F)c(=O)c2cccnc21 [Example 25, 3-(2,6-Difluoro-4-phenylethynyl-phenyl)-1-methyl-1H-pyrido[2,3-d]pyrimidine-2,4-dione]
115 nM | 108% | Cc1ccc2c(=O)n(-c3c(F)cc(C#Cc4ccccc4)cc3F)c(=O)n(C)c2c1 [Example 26, 3-[2,6-Difluoro-4-(2-phenylethynyl)phenyl]-1,7-dimethyl-quinazoline-2,4-dione]
16 nM | 83% | Cc1csc2c(=O)n(-c3c(F)cc(C#Cc4ccccc4)cc3F)c(=O)n(C)c12 [Example 27, 3-[2,6-Difluoro-4-(2-phenylethynyl)phenyl]-1,7-dimethyl-thieno[3,2-d]pyrimidine-2,4-dione]
29 nM | 86% | Cc1csc2c(=O)n(-c3c(F)cc(C#Cc4cccnc4)cc3F)c(=O)n(C)c12 [Example 28, 3-[2,6-Difluoro-4-[2-(3-pyridyl)ethynyl]phenyl]-1,7-dimethyl-thieno[3,2-d]pyrimidine-2,4-dione]
52 nM | 78% | O=c1c2cccc3c2n(c(=O)n1-c1c(F)cc(C#Cc2ccccc2)cc1F)CC3 [Example 29, 2-(2,6-Difluoro-4-(phenylethynyl)phenyl)-5,6-dihydro-1H-pyrrolo[3,2,1-ij]quinazoline-1,3(2H)-dione]
91 nM | 89% | O=c1c2cccc3c2n(c(=O)n1-c1c(F)cc(C#Cc2cccnc2)cc1F)CC3 [Example 30, 2-(2,6-Difluoro-4-(pyridin-3-ylethynyl)phenyl)-5,6-dihydro-1H-pyrrolo[3,2,1-ij]quinazoline-1,3(2H)-dione]
